Like-named read-outs stand apart in the source and are kept apart here.
Molecular target: T1, VAV1 (Homo sapiens, UniProt P15498+Q96SW2)
T1 construct: A heterozygous VAV1 C-terminal HiBiT knock-in pool was generated at Monte Rosa Therapeutics from a clonal Jurkat cell; endogenous in cells; host or cells: Jurkat clone stably expressing LgBiT, homozygous GSPT1-G575N; heterozygous VAV1-HiBiT knock-in pool
Experiment: VAV1 degradation activity, VAV1-HiBiT knock-in Jurkat luminescence assay (Example A, Table 1)
Type: cell-based
Conditions: VAV1-HiBiT knock-in Jurkat cells; for Dmax: Jurkat
In short: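 Luminescence was measured at 6 and 24 h after adding compound (10 μM stock) to VAV1-HiBiT knock-in Jurkat cells, which had been pre-incubated ~16 h at 37° C. in RPMI/10% FBS containing Endurazine. EC50 values came from control-normalised responses fitted to a 3-parameter logistic model with hillslope fixed at 1.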

[1] = luminescence read at 6 and 24 hours, read-out: VAV1 Dmax %
[2] = luminescence read at 6 and 24 hours, read-out: VAV1 Dmax %, class
[3] = luminescence read at 6 and 24 hours, read-out: VAV1 DC50
[4] = luminescence read at 6 and 24 hours, read-out: VAV1 DC50 (nM), class

| Dmax [1] [%] | Dmax [2] [%] | DC50 [3] [nM] | DC50 [4] [nM] | Dmax (luminescence read at 6 and 24 hours after compound addition, read-out: VAV1 Dmax %) [%] | Dmax (luminescence read at 6 and 24 hours after compound addition, read-out: VAV1 Dmax %, class) [%] | DC50 (luminescence read at 6 and 24 hours after compound addition, read-out: VAV1 DC50) [nM] | DC50 (luminescence read at 6 and 24 hours after compound addition, read-out: VAV1 DC50 (nM), class) [nM] | SMILES |
| --- | --- | --- | --- | --- | --- | --- | --- | --- |
| 64.6 | 60 to 90 | 482 | 100 to 1000 | – | – | – | – | Nc1ccc(-c2cccc(C3CCC(=O)NC3=O)c2Cl)cc1OC(F)F (stereo not drawn) [Compound 113] |
| 80.8 | 60 to 90 | 104 | 100 to 1000 | – | – | – | – | O=C1CCC(c2cccc(-c3ccc(N4CC5CC5C4=O)cc3)c2Cl)C(=O)N1 (stereo not drawn) [Compound 319] |
| 94 | > 90 | 11 | ≤ 100 | – | – | – | – | O=C1CN(CCOc2ccc(-c3cccc(C4CCC(=O)NC4=O)c3Cl)cc2)CCN1 (stereo not drawn) [Compound 121] |
| 95.8 | > 90 | 12.2 | ≤ 100 | – | – | – | – | O=C1CCC(c2cccc(-c3ccc(N4CCCOC4=O)cc3)c2Cl)C(=O)N1 (stereo not drawn) [Compound 204, 3-(2-chloro-4′-(2-oxo-1,3-oxazinan-3-yl)-[1,1′-biphenyl]-3-yl)piperidine-2,6-dione] |
| 94.4 | > 90 | 77.1 | ≤ 100 | – | – | – | – | Cc1c(-c2ccc(-n3ccccc3=O)cc2)cccc1C1CCC(=O)NC1=O (stereo not drawn) [Compound 240, 3-[2-methyl-3-[4-(2-oxo-1-pyridyl)phenyl]phenyl]piperidine-2,6-dione] |
| 98.4 | > 90 | 4.35 | ≤ 100 | – | – | – | – | COc1cnc(Cc2ccc(-c3cccc(C4CCC(=O)NC4=O)c3Cl)cc2)nc1 (stereo not drawn) [Compound 422, 3-(2-chloro-4′-((5-methoxypyrimidin-2-yl)methyl)-[1,1′-biphenyl]-3-yl)piperidine-2,6-dione] |
| 93.5 | > 90 | 11.1 | ≤ 100 | – | – | – | – | CN1CC(=O)N(c2ccc(-c3cccc(C4CCC(=O)NC4=O)c3Cl)cc2)c2cnccc21 (stereo not drawn) [Compound 334] |
| 70.5 | 60 to 90 | 291 | 100 to 1000 | – | – | – | – | O=C1CCC(c2cccc(-c3ccc(N4C(=O)CC5CC54)cc3)c2Cl)C(=O)N1 (stereo not drawn) [Compound 478, 3-(2-chloro-4′-(3-oxo-2-azabicyclo[3.1.0]hexan-2-yl)-[1,1′-biphenyl]-3-yl)piperidine-2,6-dione] |
| 99.3 | > 90 | 2.27 | ≤ 100 | – | – | – | – | O=C1CCC(c2cccc(-c3ccc(-n4c(C(F)(F)F)cccc4=O)cc3)c2Cl)C(=O)N1 (stereo not drawn) [Compound 443, 3-(2-chloro-4′-(2-oxo-6-(trifluoromethyl)pyridin-1(2H)-yl)-[1,1′-biphenyl]-3-yl)piperidine-2,6-dione] |
| 98 | > 90 | 14.2 | ≤ 100 | – | – | – | – | COC(=O)c1ccc(Cc2ccc(-c3cccc(C4CCC(=O)NC4=O)c3Cl)cc2)n1C (stereo not drawn) [Compound 375, methyl 5-((2′-chloro-3′-(2,6-dioxopiperidin-3-yl)-[1,1′-biphenyl]-4-yl)methyl)-1-methyl-1H-pyrrole-2-carboxylate] |
| 65.3 | 60 to 90 | 248 | 100 to 1000 | – | – | – | – | Cn1ccc(COc2ccc(-c3ccc(F)c(C4CCC(=O)NC4=O)c3Cl)cc2)n1 (stereo not drawn) [Compound 144, 3-(2-chloro-4-fluoro-4′-((1-methyl-1H-pyrazol-3-yl)methoxy)-[1,1′-biphenyl]-3-yl)piperidine-2,6-dione] |
| 82.8 | 60 to 90 | 54.8 | ≤ 100 | – | – | – | – | O=C1CCC(c2cccc(-c3ccc(CN4CCc5ocnc5C4=O)cc3)c2Cl)C(=O)N1 (stereo not drawn) [Compound 252] |
| 91.4 | > 90 | 127 | 100 to 1000 | – | – | – | – | COCCCOc1ccc(-c2cccc(C3CCC(=O)NC3=O)c2Cl)cc1 (stereo not drawn) [Compound 126] |
| 95.5 | > 90 | 12.5 | ≤ 100 | – | – | – | – | CC1CCCN(Cc2ccc(-c3cccc(C4CCC(=O)NC4=O)c3Cl)cc2)C1=O (stereo not drawn) [Compound 287] |
| 68.3 | 60 to 90 | 140 | 100 to 1000 | – | – | – | – | CN1CC(Cc2ccc(-c3cccc(C4CCC(=O)NC4=O)c3Cl)cc2)OC1=O (stereo not drawn) [Compound 454, 3-(2-chloro-4′-((3-methyl-2-oxooxazolidin-5-yl)methyl)-[1,1′-biphenyl]-3-yl)piperidine-2,6-dione] |
| 90.9 | > 90 | 16.2 | ≤ 100 | – | – | – | – | CN1CC(=O)N(c2ccc(-c3cccc(C4CCC(=O)NC4=O)c3Cl)cc2)c2cncnc21 (stereo not drawn) [Compound 326] |
| 96.5 | > 90 | 35.9 | ≤ 100 | – | – | – | – | O=C1CCC(c2cccc(-c3ccc4c(c3)CCCO4)c2Cl)C(=O)N1 (stereo not drawn) [Compound 381, 3-[2-chloro-3-(3,4-dihydro-2H-1-benzopyran-6-yl)phenyl]piperidine-2,6-dione] |

| Dmax [1] [%] | Dmax [2] [%] | DC50 [3] [nM] | DC50 [4] [nM] | Dmax (luminescence read at 6 and 24 hours after compound addition, read-out: VAV1 Dmax %) [%] | Dmax (luminescence read at 6 and 24 hours after compound addition, read-out: VAV1 Dmax %, class) [%] | DC50 (luminescence read at 6 and 24 hours after compound addition, read-out: VAV1 DC50) [nM] | DC50 (luminescence read at 6 and 24 hours after compound addition, read-out: VAV1 DC50 (nM), class) [nM] | SMILES |
| --- | --- | --- | --- | --- | --- | --- | --- | --- |
| 83.9 | 60 to 90 | 55.7 | ≤ 100 | – | – | – | – | O=C1CCC(c2cccc(-c3ccc4c(c3)CC(=O)N4Cc3cccnn3)c2Cl)C(=O)N1 (stereo not drawn) [Compound 395, 3-(2-chloro-3-(2-oxo-1-(pyridazin-3-ylmethyl)indolin-5-yl)phenyl)piperidine-2,6-dione] |
| 78 | 60 to 90 | 118 | 100 to 1000 | – | – | – | – | O=C1CCC(c2cccc(-c3ccc(CN4CCn5cncc5C4=O)cc3)c2Cl)C(=O)N1 (stereo not drawn) [Compound 273] |
| 96.1 | > 90 | 9.68 | ≤ 100 | – | – | – | – | CC1CCC(=O)N(c2ccc(-c3cccc(C4CCC(=O)NC4=O)c3Cl)cc2)C1 (stereo not drawn) [Compound 314] |
| 87.6 | 60 to 90 | 99.2 | ≤ 100 | – | – | – | – | O=C1CCC(c2cccc(-c3ccc(OCC4CCOC4)cc3)c2Cl)C(=O)N1 (stereo not drawn) [Compound 141] |
| 77.4 | 60 to 90 | 211 | 100 to 1000 | – | – | – | – | O=C1CCC(c2cccc(-c3ccc(C(=O)N4CCC(F)(F)C4)cc3)c2Cl)C(=O)N1 (stereo not drawn) [Compound 221, 3-(2-chloro-4′-(3,3-difluoropyrrolidine-1-carbonyl)-[1,1′-biphenyl]-3-yl)piperidine-2,6-dione] |
| 98.8 | > 90 | 2.43 | ≤ 100 | – | – | – | – | Cc1cnc(Cc2ccc(-c3cccc(C4CCC(=O)NC4=O)c3Cl)cc2)nc1 (stereo not drawn) [Compound 420, 3-(2-chloro-4′-((5-methylpyrimidin-2-yl)methyl)-[1,1′-biphenyl]-3-yl)piperidine-2,6-dione] |
| 93.2 | > 90 | 14.1 | ≤ 100 | – | – | – | – | CC1CCC(F)(F)C(=O)N1Cc1ccc(-c2cccc(C3CCC(=O)NC3=O)c2Cl)cc1 (stereo not drawn) [Compound 266] |
| 91.6 | > 90 | 17.2 | ≤ 100 | – | – | – | – | CN1CCN(c2ccc(-c3cccc(C4CCC(=O)NC4=O)c3Cl)cc2)C(=O)C1 (stereo not drawn) [Compound 331] |
| 95 | > 90 | 13.3 | ≤ 100 | – | – | – | – | O=C1CCC(c2cccc(-c3ccc(N4C(=O)OCCC45CCC5)nc3)c2Cl)C(=O)N1 (stereo not drawn) [Compound 359, 3-(2-chloro-3-(6-(6-oxo-7-oxa-5-azaspiro-[3.5]nonan-5-yl)pyridin-3-yl)phenyl)piperidine-2,6-dione] |
| 58.5 | < 60 | 2090 | > 1000 | – | – | – | – | O=C1CCC(c2cccc(-c3ccc(C(=O)Nc4ccon4)cc3)c2Cl)C(=O)N1 (stereo not drawn) [Compound 230, 2′-chloro-3′-(2,6-dioxopiperidin-3-yl)-N-(isoxazol-3-yl)-[1,1′-biphenyl]-4-carboxamide] |
| – | – | – | – | 82.8 | 60 to 90 | 23.7 | ≤ 100 | O=C1CCC(c2cccc(-c3ccc4c(c3)OCCN4)c2Cl)C(=O)N1 (stereo not drawn) [Compound 487, 3-(2-chloro-3-(3,4-dihydro-2H-benzo[b][1,4]oxazin-7-yl)phenyl)piperidine-2,6-dione] |
| 34.9 | < 60 | ≥ 10000 | > 1000 | – | – | – | – | CN(C)CCOc1ccc(-c2cccc(C3CCC(=O)NC3=O)c2Cl)cc1 (stereo not drawn) [Compound 135] |
| 84.6 | 60 to 90 | 604 | 100 to 1000 | – | – | – | – | Nc1cc(-c2cccc(C3CCC(=O)NC3=O)c2Cl)ccc1Cl (stereo not drawn) [Compound 138] |
| 86.7 | 60 to 90 | 29.3 | ≤ 100 | – | – | – | – | O=C1CCC(c2cccc(-c3ccc4c(c3)CC(=O)N4Cc3ncccn3)c2Cl)C(=O)N1 (stereo not drawn) [Compound 393, 3-(2-chloro-3-(2-oxo-1-(pyrimidin-2-ylmethyl)indolin-5-yl)phenyl)piperidine-2,6-dione] |
| 94.1 | > 90 | 18.4 | ≤ 100 | – | – | – | – | Cn1ccc(CCc2ccc(-c3cccc(C4CCC(=O)NC4=O)c3Cl)cc2)n1 (stereo not drawn) [Compound 194, 3-(2-chloro-4′-(2-(1-methyl-1H-pyrazol-3-yl)ethyl)-[1,1′-biphenyl]-3-yl)piperidine-2,6-dione] |
| 95.2 | > 90 | 10.2 | ≤ 100 | – | – | – | – | CC1(C)CCN(Cc2ccc(-c3cccc(C4CCC(=O)NC4=O)c3Cl)cc2)C(=O)C1 (stereo not drawn) [Compound 285] |

From US12257247B2 (Monte Rosa Therapeutics AG, priority 2023, dated 2025)
